Measurements published in PubChem BioAssay (NCI).
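Abbreviation: GI50, concentration required for 50% inhibition of growth. TGI is the concentration that stops growth completely.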

Assays:
Test in all cases: NCI tumour cell line growth inhibition, 384-well format
RXF 393 renal = test system: RXF 393 renal
RPMI-8226 leukemia = test system: RPMI-8226 leukemia
SK-MEL-2 melanoma = test system: SK-MEL-2 melanoma
COLO 205 colon = test system: COLO 205 colon
A549 NSCLC = test system: A549 NSCLC
HCT-116 colon = test system: HCT-116 colon
OVCAR-5 ovarian = test system: OVCAR-5 ovarian
NCI-H226 lung = test system: NCI-H226 lung
UACC-62 melanoma = test system: UACC-62 melanoma
ACHN renal = test system: ACHN renal
BT-549 breast = test system: BT-549 breast
MDA-MB-468 breast = test system: MDA-MB-468 breast
HL-60(TB) leukemia = test system: HL-60(TB) leukemia
SN12C renal = test system: SN12C renal
M14 melanoma = test system: M14 melanoma
MDA-MB-435 melanoma = test system: MDA-MB-435 melanoma
HT29 colon = test system: HT29 colon
NCI-H23 lung = test system: NCI-H23 lung
HOP-92 NSCLC = test system: HOP-92 NSCLC
SF-268 CNS = test system: SF-268 CNS
SW-620 colon = test system: SW-620 colon
UACC-257 melanoma = test system: UACC-257 melanoma
LOX IMVI melanoma = test system: LOX IMVI melanoma
MCF7 breast = test system: MCF7 breast
CAKI-1 renal = test system: CAKI-1 renal
DU-145 prostate = test system: DU-145 prostate
MALME-3M melanoma = test system: MALME-3M melanoma
HCT-15 colon = test system: HCT-15 colon
A498 renal = test system: A498 renal
SK-MEL-28 melanoma = test system: SK-MEL-28 melanoma
NCI/ADR-RES ovarian = test system: NCI/ADR-RES ovarian
SK-OV-3 ovarian = test system: SK-OV-3 ovarian
SNB-19 CNS = test system: SNB-19 CNS
OVCAR-3 ovarian = test system: OVCAR-3 ovarian
HOP-62 NSCLC = test system: HOP-62 NSCLC
CCRF-CEM leukemia = test system: CCRF-CEM leukemia
786-0 renal = test system: 786-0 renal
K-562 leukemia = test system: K-562 leukemia
NCI-H460 NSCLC = test system: NCI-H460 NSCLC
PC-3 prostate = test system: PC-3 prostate
IGROV1 ovarian = test system: IGROV1 ovarian
HCC-2998 colon = test system: HCC-2998 colon
SK-MEL-5 melanoma = test system: SK-MEL-5 melanoma
SR leukemia = test system: SR leukemia
OVCAR-4 ovarian = test system: OVCAR-4 ovarian
OVCAR-8 ovarian = test system: OVCAR-8 ovarian
HS 578T breast = test system: HS 578T breast

C[C@H](NC(=O)CCC(F)(F)F)C(=O)N[C@@H]1C(=O)N(CCO)c2ncccc2-c2ccccc21
GI50 (RXF 393 renal): > 100 µM
TGI (RXF 393 renal): > 100 µM
GI50 (RPMI-8226 leukemia): 49.8 µM
TGI (RPMI-8226 leukemia): > 100 µM
GI50 (SK-MEL-2 melanoma): > 100 µM
TGI (SK-MEL-2 melanoma): > 100 µM
GI50 (COLO 205 colon): > 100 µM
TGI (COLO 205 colon): > 100 µM
GI50 (A549 NSCLC): > 100 µM
TGI (A549 NSCLC): > 100 µM
GI50 (HCT-116 colon): > 100 µM
TGI (HCT-116 colon): > 100 µM
GI50 (OVCAR-5 ovarian): > 100 µM
TGI (OVCAR-5 ovarian): > 100 µM
GI50 (NCI-H226 lung): > 100 µM
TGI (NCI-H226 lung): > 100 µM
GI50 (UACC-62 melanoma): > 100 µM
TGI (UACC-62 melanoma): > 100 µM
GI50 (ACHN renal): > 100 µM
TGI (ACHN renal): > 100 µM
GI50 (BT-549 breast): > 100 µM
TGI (BT-549 breast): > 100 µM
GI50 (MDA-MB-468 breast): > 100 µM
TGI (MDA-MB-468 breast): > 100 µM
GI50 (HL-60(TB) leukemia): 54.5 µM
TGI (HL-60(TB) leukemia): > 100 µM
GI50 (SN12C renal): > 100 µM
TGI (SN12C renal): > 100 µM
GI50 (M14 melanoma): > 100 µM
TGI (M14 melanoma): > 100 µM
GI50 (MDA-MB-435 melanoma): > 100 µM
TGI (MDA-MB-435 melanoma): > 100 µM
GI50 (HT29 colon): > 100 µM
TGI (HT29 colon): > 100 µM
GI50 (NCI-H23 lung): > 100 µM
TGI (NCI-H23 lung): > 100 µM
GI50 (HOP-92 NSCLC): > 100 µM
TGI (HOP-92 NSCLC): > 100 µM
GI50 (SF-268 CNS): > 100 µM
TGI (SF-268 CNS): > 100 µM
GI50 (SW-620 colon): 87.1 µM
TGI (SW-620 colon): > 100 µM
GI50 (UACC-257 melanoma): > 100 µM
TGI (UACC-257 melanoma): > 100 µM
GI50 (LOX IMVI melanoma): 43.3 µM
TGI (LOX IMVI melanoma): > 100 µM
GI50 (MCF7 breast): > 100 µM
TGI (MCF7 breast): > 100 µM
GI50 (CAKI-1 renal): > 100 µM
TGI (CAKI-1 renal): > 100 µM
GI50 (DU-145 prostate): > 100 µM
TGI (DU-145 prostate): > 100 µM
GI50 (MALME-3M melanoma): > 100 µM
TGI (MALME-3M melanoma): > 100 µM
GI50 (HCT-15 colon): > 100 µM
TGI (HCT-15 colon): > 100 µM
GI50 (A498 renal): > 100 µM
TGI (A498 renal): > 100 µM
GI50 (SK-MEL-28 melanoma): > 100 µM
TGI (SK-MEL-28 melanoma): > 100 µM
GI50 (NCI/ADR-RES ovarian): > 100 µM
TGI (NCI/ADR-RES ovarian): > 100 µM
GI50 (SK-OV-3 ovarian): > 100 µM
TGI (SK-OV-3 ovarian): > 100 µM
GI50 (SNB-19 CNS): > 100 µM
TGI (SNB-19 CNS): > 100 µM
GI50 (OVCAR-3 ovarian): > 100 µM
TGI (OVCAR-3 ovarian): > 100 µM
GI50 (HOP-62 NSCLC): > 100 µM
TGI (HOP-62 NSCLC): > 100 µM
GI50 (CCRF-CEM leukemia): 22.9 µM
TGI (CCRF-CEM leukemia): > 56.2 µM
GI50 ([…]-0 renal): > 100 µM
TGI (786-0 renal): > 100 µM
GI50 (K-562 leukemia): 41.6 µM
TGI (K-562 leukemia): > 91.3 µM
GI50 (NCI-H460 NSCLC): > 100 µM
TGI (NCI-H460 NSCLC): > 100 µM
GI50 (PC-3 prostate): > 100 µM
TGI (PC-3 prostate): > 100 µM
GI50 (IGROV1 ovarian): > 100 µM
TGI (IGROV1 ovarian): > 100 µM
GI50 (HCC-2998 colon): > 100 µM
TGI (HCC-2998 colon): > 100 µM
GI50 (SK-MEL-5 melanoma): > 100 µM
TGI (SK-MEL-5 melanoma): > 100 µM
GI50 (SR leukemia): 64 µM
TGI (SR leukemia): > 100 µM
GI50 (OVCAR-4 ovarian): > 100 µM
TGI (OVCAR-4 ovarian): > 100 µM
GI50 (OVCAR-8 ovarian): > 100 µM
TGI (OVCAR-8 ovarian): > 100 µM
GI50 (HS 578T breast): > 100 µM
TGI (HS 578T breast): > 100 µM
